Reference: US10517889B2, “Modulators of SMAD7 expression” (Ionis Pharmaceuticals, Inc., priority 2017, dated 2019)
Strand notation (5' to 3'): a small letter for the sugar, then the base; units joined by * are phosphorothioate-linked, units joined directly phosphodiester-linked; [ ] holds rarer units or linkages, { } end groups; capitals alone tell only the bases. k = constrained ethyl (cEt); [5mC] = 5-methylcytosine; d = 2'-deoxy (DNA)

Experiments:
[1] = tested on: human SMAD7 mRNA; assay: Dose-dependent inhibition of human SMAD7 mRNA expression in Hep3B cells (Example 3, Study 1 and 2); format: cell-based; settings: electroporation; for % inhibition of SMAD7 mRNA expression: approximately 16 hours; for IC50: Study 2 (740-20000 nM)
Method in brief: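 Hep3B cells, 20,000 per well, electroporated with antisense oligonucleotide at 0.31, 1.25, 5.00 or 20.00 μM (first series) or 0.74, 2.22, 6.67 or 20.00 μM (second series). After ~16 h, SMAD7 mRNA measured by RT-qPCR (RTS5062), normalised to RIBOGREEN total RNA. Percent inhibition vs untreated cells; IC50 derived.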

[2] = tested on: human SMAD7 mRNA; assay: Antisense inhibition of human SMAD7 mRNA expression in Hep3B cells by 3-10-3 cEt gapmers, 10,000 nM, electroporation (Example 2); format: cell-based; settings: approximately 24 hours; for % inhibition of SMAD7 mRNA expression: electroporation, 10,000 nM antisense oligonucleotide, RTS5062, relative to untreated control cells
Method in brief: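 Hep3B, 20,000 cells/well; electroporation, 10,000 nM ASO; ~24 h. Readout: SMAD7 mRNA by qRT-PCR (RTS5062), RIBOGREEN-normalised; % inhibition vs untreated.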

[3] = 740 nM, Study 2, relative to untreated control cells
[4] = Hep3B cells, electroporation with 10,000 nM antisense oligonucleotide, RTS5062, percent inhibition of SMAD7 mRNA relative to untreated control cells
[5] = Hep3B cells, 10,000 nM antisense oligonucleotide, electroporation, RT-PCR primer probe set RTS5062, relative to untreated control cells
[6] = Hep3B cells, electroporation with 10,000 nM antisense oligonucleotide, SMAD7 mRNA by RT-PCR (RTS5062), relative to untreated control cells

Row | Substance | % inhibition of SMAD7 mRNA expression [1, 3] [%] | % inhibition of SMAD7 mRNA expression ([1]; 2220 nM, Study 2) [%] | % inhibition of SMAD7 mRNA expression ([1]; 6670.0 nM, Study 2) [%] | % inhibition of SMAD7 mRNA expression ([1]; 20000.0 nM, Study 2) [%] | IC50 [1] [µM] | % inhibition of SMAD7 mRNA expression ([2]; Hep3B cells) [%] | % Inhibition [2, 4] [%] | % Inhibition [2, 5] [%] | % Inhibition [2, 6] [%]
1 | 799755 (antisense kG*kA*kA*dA*dG*dT*dT*dA*d[5mC]*dA*dG*dA*dA*k[5mC]*kT*k[5mC]) [compound 799755] | 13 | 44 | 66 | 75 | 6 | 77 |  |  | 
2 | 799759 (antisense kA*k[5mC]*k[5mC]*dA*dT*dA*dT*d[5mC]*dA*d[5mC]*dT*d[5mC]*d[5mC]*kT*kT*k[5mC]) [compound 799759] | 22 | 44 | 45 | 66 | 2 | 66 |  |  | 
3 | 799781 (kG*kT*k[5mC]*dA*dA*dT*dA*d[5mC]*dA*dT*dA*dT*dT*kT*kG*k[5mC]; antisense) [compound 799781] | 23 | 75 | 72 | 92 | > 20 |  | 66 |  | 
4 | 799787 (k[5mC]*k[5mC]*kA*dA*dA*dG*d[5mC]*dA*dG*dA*dA*dG*dT*kA*kG*kA; antisense) [compound 799787] | 0 | 9 | 35 | 41 | 18 |  | 58 |  | 
5 | 799791 (kG*kG*kG*dA*dG*dA*d[5mC]*d[5mC]*dT*dA*d[5mC]*d[5mC]*dT*k[5mC]*kT*kG; antisense) [compound 799791] | 11 | 4 | 29 | 60 | 6 | 56 |  |  | 
6 | 799808 (antisense kG*k[5mC]*kT*dG*dA*dA*dA*dG*dA*dA*dA*dG*dT*k[5mC]*k[5mC]*k[5mC]) [compound 799808] | 8 | 33 | 52 | 73 | 10 |  | 70 |  | 
7 | 799851 (kA*kA*kG*dT*dG*dT*d[5mC]*d[5mC]*dA*dT*d[5mC]*dA*dA*kG*k[5mC]*kA; antisense) [compound 799851] | 15 | 36 | 46 | 57 | 2 |  |  | 70 | 
8 | 799854 (kG*k[5mC]*k[5mC]*dA*dA*dG*dT*dG*dT*d[5mC]*d[5mC]*dA*dT*k[5mC]*kA*kA; antisense) [compound 799854] | 21 | 56 | 80 | 79 | 5 |  |  | 45 | 
9 | 799858 (kG*kT*kA*dA*dT*dT*dT*dA*dG*d[5mC]*dA*dA*dT*kT*k[5mC]*k[5mC]; antisense) [compound 799858] | 18 | 43 | 48 | 71 | 2 |  |  | 64 | 
10 | 799878 (kG*k[5mC]*k[5mC]*d[5mC]*d[5mC]*d[5mC]*d[5mC]*dT*d[5mC]*d[5mC]*d[5mC]*d[5mC]*dG*kT*kG*k[5mC]; antisense) [compound 799878] | 35 | 64 | 68 | 84 | 17 |  |  | 70 | 
11 | 799904 (antisense kA*k[5mC]*kT*d[5mC]*dA*dG*dA*dG*d[5mC]*dA*dG*d[5mC]*dT*k[5mC]*kT*k[5mC]) [compound 799904] | 3 | 9 | 23 | 62 | 8 |  |  |  | 61
12 | 799921 (antisense k[5mC]*kT*kA*dA*dT*dT*dA*dG*dT*dG*dA*d[5mC]*dT*kG*kT*kG) [compound 799921] | 10 | 35 | 55 | 58 | 11 |  |  |  | 75
13 | 799964 (antisense k[5mC]*k[5mC]*k[5mC]*d[5mC]*dT*dT*dA*dG*d[5mC]*dG*d[5mC]*dA*dT*kT*k[5mC]*kT) [compound 799964] | 4 | 15 | 46 | 61 | > 20 |  |  |  | 55
14 | 799967 (kG*kA*k[5mC]*dG*dA*dT*dG*dA*dA*dT*d[5mC]*d[5mC]*dT*kG*kG*k[5mC]; antisense) [compound 799967] | 0 | 0 | 0 | 20 | 9 |  |  |  | 72
15 | 799980 (k[5mC]*k[5mC]*kA*dA*d[5mC]*dG*dG*dT*dT*dG*d[5mC]*d[5mC]*dT*k[5mC]*kA*kT; antisense) [compound 799980] | 22 | 22 | 51 | 61 | 13 |  |  |  | 78
16 | 800010 (kG*kT*kT*dA*dT*dT*dT*dA*dA*dT*dT*dA*d[5mC]*k[5mC]*k[5mC]*kT; antisense) [compound 800010] | 33 | 13 | 47 | 59 | 6 |  |  | 69 | 
17 | 800025 (kA*kG*kT*dA*d[5mC]*dA*dA*dG*dG*dA*d[5mC]*dT*dA*kA*kG*kG; antisense) [compound 800025] | 0 | 42 | 55 | 74 | 6 |  |  |  | 65
18 | 800031 (kA*kG*kA*dA*dA*d[5mC]*dA*d[5mC]*dA*dG*dT*dT*d[5mC]*k[5mC]*k[5mC]*kT; antisense) [compound 800031] | 10 | 39 | 57 | 69 | 8 |  |  | 52 | 
19 | 800048 (antisense kT*kG*kG*dA*dA*dA*dG*dG*dA*dA*dG*dA*d[5mC]*kT*k[5mC]*kG) [compound 800048] | 0 | 31 | 58 | 58 | 4 |  |  |  | 64
20 | 800066 (antisense kT*kG*kT*dT*dT*dT*dA*dA*dG*dT*dA*dG*d[5mC]*kA*kG*k[5mC]) [compound 800066] | 7 | 42 | 62 | 82 | 9 |  |  |  | 63
